Measurements taken from ChEMBL document CHEMBL1201862, “PubChem BioAssay data set” (2004).
Active and inactive are the calls of the source.

Tests used:
[1] = target: T1, Mannose-6-phosphate isomerase (Homo sapiens, UniProt P34949); experiment: MPI inhibition at elevated mannose 6-phosphate – biochemical, fluorescence intensity, high mannose 6-phosphate, primary screen (AID 1220)
T1 sequence (P34949 whole entry): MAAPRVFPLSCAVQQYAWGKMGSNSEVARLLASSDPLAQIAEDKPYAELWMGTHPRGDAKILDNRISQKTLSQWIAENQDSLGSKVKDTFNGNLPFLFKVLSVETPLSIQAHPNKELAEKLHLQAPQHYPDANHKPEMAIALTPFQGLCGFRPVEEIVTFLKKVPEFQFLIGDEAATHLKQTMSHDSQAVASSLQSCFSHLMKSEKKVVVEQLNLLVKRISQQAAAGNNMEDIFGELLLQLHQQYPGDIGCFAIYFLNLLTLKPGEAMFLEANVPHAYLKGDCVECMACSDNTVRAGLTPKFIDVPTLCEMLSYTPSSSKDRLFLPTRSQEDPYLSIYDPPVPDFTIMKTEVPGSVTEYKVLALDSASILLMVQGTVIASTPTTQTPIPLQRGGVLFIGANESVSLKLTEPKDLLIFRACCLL

[2] = Luminescence Cell-Based Dose Retest to Confirm Inhibitors of Cancer Stem Cells. [Related pubchem assays (depositor defined):AID2717, AID2721]; type: functional; conditions: Homo sapiens
[3] = viability loss of HMLE_sh_eGFP cells – cell-based, luminescence, counter-screen for HMLE_sh_ECad selective toxicity project, dose response (AID 463074); type: functional, Homo sapiens;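 note: HMLE human mammary epithelial cells expressing control shRNA against eGFP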
[4] = target: T2, Tyrosyl-DNA phosphodiesterase 2 (Homo sapiens, UniProt O95551); experiment: potency against TDP2 phosphodiesterase activity – biochemical, epi absorbance, IC50, dose response (AID 743297)
T2 sequence (O95551 whole entry): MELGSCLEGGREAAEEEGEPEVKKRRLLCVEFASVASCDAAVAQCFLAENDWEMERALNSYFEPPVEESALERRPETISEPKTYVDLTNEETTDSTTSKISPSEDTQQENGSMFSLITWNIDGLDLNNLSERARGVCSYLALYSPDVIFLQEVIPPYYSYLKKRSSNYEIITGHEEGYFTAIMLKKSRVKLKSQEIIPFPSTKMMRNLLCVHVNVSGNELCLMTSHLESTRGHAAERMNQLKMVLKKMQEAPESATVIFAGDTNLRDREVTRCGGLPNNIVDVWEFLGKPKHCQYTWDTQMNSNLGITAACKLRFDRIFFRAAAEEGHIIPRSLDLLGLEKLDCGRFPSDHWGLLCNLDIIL

Jurkat [5] = experiment: SAR Analysis of small molecule inhibitors of […] specific antigen receptor-induced NF-kB activation in a Jurkat cell line using a luminescence assay - Set 3. [Related pubchem assays (depositor defined):AID435022, AID435025, AID465]; type: functional, cell-based; conditions: Homo sapiens
HEK293 [6] = experiment: SAR Analysis of small molecule inhibitors of B-cell specific antigen receptor-induced NF-kB activation in a HEK-293T cell line using a luminescence assay - Set 2. [Related pubchem assays (depositor defined):AID435022, AID435025, AID489021]; type: functional, cell-based; conditions: Homo sapiens
HEK293 [7] = experiment: HEK293T cell viability loss, resazurin readout – resazurin fluorescence, cytotoxicity control for NF-kB activator project, SAR follow-up (AID 493251); type: functional, cell-based; conditions: Homo sapiens
[8] = target: Dual specificity protein phosphatase 3 (Homo sapiens, UniProt P51452); experiment: SAR VHR1 Fluorescent Assay for In Vitro dose response studies Set 3. [Related pubchem assays (depositor defined):AID1654, AID1661, AID1878]; type: functional
[9] = target: T3, Short transient receptor potential channel 4 (Mus musculus, UniProt Q9QUQ5); experiment: calcium entry via TRPC4 opening agents – cell-based, HEK293 TRPC4/mu-opioid, Fluo-4 calcium, dose response (AID 434937); type: functional
T3 sequence (Q9QUQ5 whole entry): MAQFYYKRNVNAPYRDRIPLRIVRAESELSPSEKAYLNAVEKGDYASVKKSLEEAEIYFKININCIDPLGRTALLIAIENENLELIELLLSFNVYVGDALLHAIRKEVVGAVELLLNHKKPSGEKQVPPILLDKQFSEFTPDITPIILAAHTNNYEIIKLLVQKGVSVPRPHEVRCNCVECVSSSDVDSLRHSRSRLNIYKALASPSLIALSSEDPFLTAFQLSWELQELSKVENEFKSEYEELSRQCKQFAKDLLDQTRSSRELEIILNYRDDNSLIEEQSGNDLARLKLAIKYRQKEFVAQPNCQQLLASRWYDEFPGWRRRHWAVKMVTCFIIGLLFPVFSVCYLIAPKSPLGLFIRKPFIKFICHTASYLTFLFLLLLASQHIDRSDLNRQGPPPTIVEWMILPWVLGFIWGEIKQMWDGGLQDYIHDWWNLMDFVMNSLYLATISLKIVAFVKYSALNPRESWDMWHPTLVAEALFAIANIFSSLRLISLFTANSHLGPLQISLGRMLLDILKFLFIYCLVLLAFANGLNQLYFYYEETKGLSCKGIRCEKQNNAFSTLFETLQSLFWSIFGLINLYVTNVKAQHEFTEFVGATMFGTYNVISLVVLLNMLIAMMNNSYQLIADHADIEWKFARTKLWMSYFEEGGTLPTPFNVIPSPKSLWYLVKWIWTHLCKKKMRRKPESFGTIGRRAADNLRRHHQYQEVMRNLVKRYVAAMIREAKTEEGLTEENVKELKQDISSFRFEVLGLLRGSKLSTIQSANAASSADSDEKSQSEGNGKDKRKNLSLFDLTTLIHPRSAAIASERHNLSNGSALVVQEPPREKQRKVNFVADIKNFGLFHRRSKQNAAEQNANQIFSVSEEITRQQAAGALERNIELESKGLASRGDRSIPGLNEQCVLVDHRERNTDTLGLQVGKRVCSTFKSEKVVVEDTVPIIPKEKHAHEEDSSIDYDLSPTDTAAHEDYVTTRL

[10] = target: Delta-type opioid receptor (Homo sapiens, UniProt P41143); experiment: Counterscreen for agonists of heterodimerization of the mu 1 (OPRM1) and delta 1 (OPRD1) opioid receptors: Luminescence-based cell-based high throughput dose response assay to identify agonists of OPRD1 homodimerization. [Related pubchem assays (depositor defined):AID504326, AID504355, AID504692, AID504904, AID504905]; type: functional
Mu-type opioid receptor = Mu-type opioid receptor (Homo sapiens, UniProt P35372); experiment: Counterscreen for agonists of heterodimerization of the mu 1 (OPRM1) and delta 1 (OPRD1) opioid receptors: Luminescence-based cell-based high throughput dose response assay to identify agonists of OPRM1 homodimerization.; type: functional;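 note: U2OS cells expressing OPRM1 and beta-arrestin as split beta-galactosidase partners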
[11] = target: 5-hydroxytryptamine receptor 5A (Homo sapiens, UniProt P47898); experiment: Counterscreen for agonists of OPRM1-OPRD1 heterodimerization: luminescence-based cell-based high throughput dose response assay to identify agonists of 5-hydroxytryptamine (serotonin) 5A receptor (HTR5A). [Related pubchem assays (depositor defined):AID504326, AID504355, AID504692, AID504904, AID504905]; type: functional
[12] = suppression of NO production in INS-1E cells – cell-based, Griess absorbance, dry powder, set 3, dose response (AID 488870); type: functional; conditions: Rattus norvegicus
Vero = experiment: cells; type: functional, cell-based; conditions: Chlorocebus sabaeus
cells [13] = type: functional, cell-based
[14] = target: T4, Trace amine-associated receptor 1 (Homo sapiens, UniProt Q96RJ0); experiment: Fluorescence-based cell-based high throughput dose response assay to identify agonists of the human trace amine associated receptor 1 (TAAR1).; type: functional
T4 sequence (Q96RJ0 whole entry): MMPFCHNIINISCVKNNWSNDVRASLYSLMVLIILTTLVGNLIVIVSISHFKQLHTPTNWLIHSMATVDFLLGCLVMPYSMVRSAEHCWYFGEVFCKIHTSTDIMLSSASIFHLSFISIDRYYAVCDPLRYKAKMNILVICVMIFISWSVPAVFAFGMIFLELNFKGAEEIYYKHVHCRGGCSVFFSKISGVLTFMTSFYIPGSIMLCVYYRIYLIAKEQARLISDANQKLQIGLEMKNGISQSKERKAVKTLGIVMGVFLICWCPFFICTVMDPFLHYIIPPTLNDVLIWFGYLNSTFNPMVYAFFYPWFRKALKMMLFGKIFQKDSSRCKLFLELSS

[15] = target: T4, Trace amine-associated receptor 1; experiment: Counterscreen for agonists of the human trace amine associated receptor 1 (hTAAR1): Fluorescence-based cell-based high throughput dose response assay to identify hTAAR1 agonist that also desensitize TAAR1 receptor response.; type: functional
cells [16] = type: functional, cell-based; remark: listed apart in the source
[17] = luciferase reporter signal suppression in cells – H4 neuroglioma cells, luminescence, dose response (AID 1990); type: functional, cell-based
[18] = luciferase reporter signal reduction – luminescence, H4-C neuroglioblastoma cells, dose response (AID 2458); type: functional, cell-based;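 note: H4 neuroglioblastoma cells stably carrying a luciferase reporter gene fusion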
cells [19] = type: functional, cell-based; remark: listed apart in the source
[20] = Luminescence Cell-Based Dose Response HTS to Identify Inhibitors of 5'UTR Stem-Loop Driven Prion Protein mRNA Translation in H4 Neuroglioblastoma Cells. [Related pubchem assays: 1827 (Project Summary), 1813 (Primary HTS)]; type: functional
[21] = alpha-synuclein stem-loop luciferase translation blockers – H4 neuroglioma cells, luminescence, confirmation (AID 1988); type: functional, cell-based
[22] = alpha-synuclein stem-loop translation blockers – luminescence, H4 neuroglioblastoma cells, dose confirmation, confirmation (AID 2454); type: functional, cell-based;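 note: H4 neuroglioblastoma cells carrying an alpha-synuclein 5'UTR luciferase reporter; potency for inhibition of the luciferase signal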
[23] = restored growth of temperature-sensitive Burl-1 yeast – whole organism, S. cerevisiae, Burl-1 ts mutant, luminescence, counter-screen for SUMOylation pathway inhibitor project, dose response (AID 463199); type: functional
Jurkat [24] = experiment: SAR Analysis of small molecule inhibitors of T-cell specific antigen receptor-induced NF-kB activation in a Jurkat cell line using a luminescence assay - Set 2. [Related pubchem assays (depositor defined):AID435003, AID435012, AID465]; type: functional, cell-based; conditions: Homo sapiens
HEK293 [25] = experiment: SAR Analysis of small molecule inhibitors of T-cell specific antigen receptor-induced NF-kB activation in a HEK-293T cell line using a luminescence assay - Set 2. [Related pubchem assays (depositor defined):AID435003, AID435012, AID489026]; type: functional, cell-based; conditions: Homo sapiens

Chain of Delta-type opioid receptor (P41143 whole entry): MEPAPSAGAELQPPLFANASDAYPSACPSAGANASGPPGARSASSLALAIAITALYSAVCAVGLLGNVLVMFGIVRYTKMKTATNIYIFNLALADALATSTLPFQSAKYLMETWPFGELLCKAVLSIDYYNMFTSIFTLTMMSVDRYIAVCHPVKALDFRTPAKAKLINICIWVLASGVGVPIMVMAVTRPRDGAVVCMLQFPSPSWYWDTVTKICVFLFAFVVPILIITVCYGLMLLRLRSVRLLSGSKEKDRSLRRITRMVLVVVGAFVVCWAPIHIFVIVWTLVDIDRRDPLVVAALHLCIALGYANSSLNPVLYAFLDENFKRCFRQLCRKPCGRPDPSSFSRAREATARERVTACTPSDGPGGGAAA
Chain of Mu-type opioid receptor (P35372 whole entry): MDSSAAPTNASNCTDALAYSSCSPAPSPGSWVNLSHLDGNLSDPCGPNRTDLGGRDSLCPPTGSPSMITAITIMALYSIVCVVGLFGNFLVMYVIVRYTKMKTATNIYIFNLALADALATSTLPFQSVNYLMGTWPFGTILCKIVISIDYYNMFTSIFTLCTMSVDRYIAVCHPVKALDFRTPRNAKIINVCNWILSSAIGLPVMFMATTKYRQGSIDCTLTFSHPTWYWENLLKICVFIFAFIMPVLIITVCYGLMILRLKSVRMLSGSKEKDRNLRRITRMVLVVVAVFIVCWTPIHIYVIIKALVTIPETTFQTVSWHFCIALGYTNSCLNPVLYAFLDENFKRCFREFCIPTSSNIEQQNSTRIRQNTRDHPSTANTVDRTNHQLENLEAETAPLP
Chain of Dual specificity protein phosphatase 3 (P51452 whole entry): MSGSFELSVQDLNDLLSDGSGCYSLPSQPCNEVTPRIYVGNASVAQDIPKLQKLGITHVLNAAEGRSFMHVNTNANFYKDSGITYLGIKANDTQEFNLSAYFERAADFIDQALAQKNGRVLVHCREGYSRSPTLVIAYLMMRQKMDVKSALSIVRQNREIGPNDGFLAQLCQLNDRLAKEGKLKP
Chain of 5-hydroxytryptamine receptor 5A (P47898 whole entry): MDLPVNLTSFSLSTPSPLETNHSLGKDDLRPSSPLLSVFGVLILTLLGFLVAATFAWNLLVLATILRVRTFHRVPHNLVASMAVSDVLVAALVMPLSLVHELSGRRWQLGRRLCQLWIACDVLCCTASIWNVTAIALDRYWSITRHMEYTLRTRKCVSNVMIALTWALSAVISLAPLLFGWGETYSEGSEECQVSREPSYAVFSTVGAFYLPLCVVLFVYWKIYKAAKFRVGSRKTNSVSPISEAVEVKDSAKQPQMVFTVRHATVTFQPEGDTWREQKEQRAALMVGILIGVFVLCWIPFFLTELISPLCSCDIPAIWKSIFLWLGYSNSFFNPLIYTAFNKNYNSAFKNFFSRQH

Oc1c(/C=N/c2cccc3nsnc23)ccc2ccccc12
IC50 [1]: > 50 µM (not active) | AC50 [2]: 23.7 µM (active) | AC50 [3]: 29.4 µM (active) | IC50 [4]: 80.5 µM (inactive)

CCOc1ccc(-c2nc(CSCC(=O)NCCOC)c(C)o2)cc1
IC50 (Jurkat [5]): > 80 µM (inactive) | IC50 (HEK293 [6]): > 80 µM (inactive) | IC50 (HEK293 [7]): > 80 µM (inactive)

COc1ccc(-c2nnc(Nc3nc4c(F)cccc4s3)o2)cc1
IC50 [8]: 3.71 µM (active)

OCC1(CCc2ccccc2)CCN(Cc2cccn2-c2cccnc2)CC1
EC50 [9]: 0.149 µM (active) | EC50 [10]: > 92.5 µM (inactive) | EC50 (Mu-type opioid receptor): 52.6 µM (inactive) | EC50 [11]: > 92.5 µM (inactive)

COc1ccc(NC(=O)N(C)C[C@@H]2Oc3c(NC(=O)Nc4cccc5ccccc45)cccc3C(=O)N([C@@H](C)CO)C[C@H]2C)cc1
AC50 [12]: 43.7 µM (active)

CCCCOc1ccc(C(=O)Nc2ccc(N3CCN(C)CC3)cc2)cc1
IC50 (Vero): 24.8 µM (active) | IC50 (cells [13]): > 29.9 µM (inactive) | EC50 [14]: 10.2 µM (inactive) | IC50 [15]: > 29.9 µM (inactive) | EC50 (cells [16]): > 29.9 µM (inactive)

COc1ccc2cc3c(N)nn(C(=O)c4ccccc4Cl)c3nc2c1
EC50 [17]: < 0.1 µM (active) | EC50 [18]: 1.43 µM (active) | EC50 (cells [19]): 0.736 µM (active) | EC50 [20]: < 0.1 µM (active) | EC50 [21]: 9.14 µM (active) | EC50 [22]: > 12 µM (not active) | AC50 [23]: 47.8 µM (active)

CC(=O)N1CCc2cc(NC(=O)c3ccc([N+](=O)[O-])o3)ccc21
IC50 (HEK293 [7]): > 80 µM (inactive) | IC50 (Jurkat [24]): 49.5 µM (inactive) | IC50 (HEK293 [25]): 50.5 µM (inactive)
